Assay results taken from ChEMBL document CHEMBL3137667, “[Drug-induced liver injury; fourteenth updated edition of the bibliographic database of liver injuries and related drugs]” (Gastroenterol Clin Biol, 2004).

Tests used:
[1] = human
[2] = Highest frequency of acute liver toxicity observed during clinical trials, expressed as a percentage. [column '% AIGUE' in source]; settings: human
[3] = human, serum, 4383 h
[4] = human; remark: listed apart in the source
[5] = Comments (NB not yet translated). [column 'COMMENTAIRES' in source]; settings: human
[6] = human; remark: listed apart in the source
[7] = human; remark: listed apart in the source
[8] = Highest frequency of moderate liver toxicity observed during clinical trials, expressed as a percentage. [column '% BIOL' in source]; settings: human
[9] = human; remark: listed apart in the source
[10] = Times to onset, minimal and maximal, observed in the indexed observations. [column 'DELAI' in source]; settings: human
[11] = human; remark: listed apart in the source
[12] = human; remark: listed apart in the source
[13] = Presence of at least one case with successful reintroduction. [column 'REINT' in source]; settings: human
[14] = human, serum
[15] = human, serum; remark: listed apart in the source
[16] = human; remark: listed apart in the source
[17] = human; remark: listed apart in the source
[18] = Proposed mechanism(s) of liver damage. [column 'MEC' in source]; settings: human
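Wherever Hepatotoxicity (association with vascular disease) is given: count of indexed literature references reporting vascular liver injury in humans, e.g. peliosis hepatitis, hepatic veno-occlusive disease or Budd-Chiari syndrome.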
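Wherever Hepatotoxicity (benign tumour) is given: value is a count of indexed literature references citing a benign tumour confirmed by histopathology.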
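Wherever Hepatotoxicity (choleostasis) is given: human cholestatic liver injury, shown by histopathology or by peak ALT or AST elevation over alkaline phosphatase ratio below 2, value counts indexed literature reports.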
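Wherever Hepatotoxicity (chronic liver disease) is given: chronic liver injury confirmed by histopathology or persistently raised serum aminotransferase activity beyond 6 months, value given as the count of indexed literature references.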
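Wherever Hepatotoxicity (cirrhosis) is given: value is a count of indexed literature references reporting cirrhosis confirmed by histopathology.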
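Wherever Hepatotoxicity (cytolytic) is given: human cytolytic liver injury, shown by histopathology or by a ratio above 5 of peak ALT or AST elevation to alkaline phosphatase elevation, value counts indexed references.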
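Wherever Hepatotoxicity (granulomatous hepatitis) is given: value is a count of indexed literature references reporting granulomatous liver disease confirmed by histopathology.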
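Wherever Hepatotoxicity (malignant tumour) is given: malignant tumour confirmed by histopathology, value gives the count of indexed literature references reporting it.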
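Wherever Hepatotoxicity (severe hepatitis) is given: human clinical data: severe hepatitis, meaning potentially life-threatening liver failure or clinically observed cases, the value counts how many indexed literature references report it.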
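Wherever Hepatotoxicity (steatosis) is given: steatosis confirmed by histopathology, value is the count of indexed references.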

CC[C@H](C)C(=O)O[C@H]1C[C@H](O)C=C2C=C[C@H](C)[C@H](CC[C@@H](O)C[C@@H](O)CC(=O)O)[C@H]21 [PRAVASTATIN]
Hepatotoxicity (choleostasis) [1]: 3 | Hepatotoxicity (acute) ([2]; Liver): 1.1% | Hepatotoxicity (chronic liver disease) [3]: 0 | Hepatotoxicity (steatosis) [4]: 1 | Hepatotoxicity (comment) [5]: AC_ANTI-N/-MF | Hepatotoxicity (malignant tumour) [6]: 0 | Hepatotoxicity (severe hepatitis) ([7]; Liver): 0 | Hepatotoxicity (moderate) ([8]; Liver): 22.5% | Hepatotoxicity (association with vascular disease) [9]: 0 | Hepatotoxicity (time to onset) [10]: 1 week - 20 weeks | Hepatotoxicity (benign tumour) [11]: 0 | Hepatotoxicity (cirrhosis) [12]: 0 | Hepatotoxicity (successful reintroduction) [13]: yes | Hepatotoxicity (acute) [14]: 7 | Hepatotoxicity (moderate) [15]: 50 | Hepatotoxicity (cytolytic) [16]: 3 | Hepatotoxicity (granulomatous hepatitis) [17]: 0

CC(C)(C)NC(=O)[C@@H]1C[C@@H]2CCCC[C@@H]2CN1C[C@@H](O)[C@H](Cc1ccccc1)NC(=O)[C@H](CC(N)=O)NC(=O)c1ccc2ccccc2n1
Hepatotoxicity (choleostasis) ([1]; Liver): 0 | Hepatotoxicity (acute) ([2]; Liver): 12.5% | Hepatotoxicity (chronic liver disease) [3]: 0 | Hepatotoxicity (steatosis) [4]: 0 | Hepatotoxicity (comment) [5]: REACTIVATION_HVB | Hepatotoxicity (malignant tumour) [6]: 0 | Hepatotoxicity (severe hepatitis) ([7]; Liver): 0 | Hepatotoxicity (moderate) ([8]; Liver): 44% | Hepatotoxicity (association with vascular disease) [9]: 0 | Hepatotoxicity (time to onset) [10]: < 1 day - 6 months | Hepatotoxicity (benign tumour) [11]: 0 | Hepatotoxicity (cirrhosis) [12]: 0 | Hepatotoxicity (successful reintroduction) [13]: yes | Hepatotoxicity (moderate) [15]: 7 | Hepatotoxicity (cytolytic) ([16]; Liver): 10 | Hepatotoxicity (granulomatous hepatitis) ([17]; Liver): 0

OC(Cn1cncn1)(Cn1cncn1)c1ccc(F)cc1F [FLUCONAZOLE]
Hepatotoxicity (choleostasis) ([1]; Liver): 13 | Hepatotoxicity (acute) ([2]; Liver): 6.3% | Hepatotoxicity (chronic liver disease) [3]: 0 | Hepatotoxicity (steatosis) [4]: 1 | Hepatotoxicity (malignant tumour) [6]: 0 | Hepatotoxicity (severe hepatitis) ([7]; Liver): 7 | Hepatotoxicity (mechanism) ([18]; Liver): Dose-dependant | Hepatotoxicity (moderate) ([8]; Liver): 83.3% | Hepatotoxicity (association with vascular disease) [9]: 0 | Hepatotoxicity (time to onset) [10]: 2 days - 10 months | Hepatotoxicity (benign tumour) [11]: 0 | Hepatotoxicity (cirrhosis) [12]: 0 | Hepatotoxicity (successful reintroduction) [13]: yes | Hepatotoxicity (acute) [14]: 25 | Hepatotoxicity (moderate) [15]: 84 | Hepatotoxicity (cytolytic) ([16]; Liver): 15 | Hepatotoxicity (granulomatous hepatitis) ([17]; Liver): 1

CC(C)(C)c1ccc(C(O)CCCN2CCC(C(O)(c3ccccc3)c3ccccc3)CC2)cc1 (centres undefined) [TERFENADINE]
Hepatotoxicity (choleostasis) [1]: 2 | Hepatotoxicity (acute) ([2]; Liver): 0% | Hepatotoxicity (chronic liver disease) [3]: 0 | Hepatotoxicity (steatosis) [4]: 0 | Hepatotoxicity (comment) [5]: DESTRUCTION_VB | Hepatotoxicity (malignant tumour) [6]: 0 | Hepatotoxicity (severe hepatitis) ([7]; Liver): 0 | Hepatotoxicity (moderate) ([8]; Liver): 19.2% | Hepatotoxicity (association with vascular disease) [9]: 0 | Hepatotoxicity (time to onset) [10]: 4 weeks - 5 months | Hepatotoxicity (benign tumour) [11]: 0 | Hepatotoxicity (cirrhosis) [12]: 0 | Hepatotoxicity (successful reintroduction) [13]: yes | Hepatotoxicity (moderate) [15]: 1 | Hepatotoxicity (cytolytic) [16]: 2 | Hepatotoxicity (granulomatous hepatitis) [17]: 0

CCc1cc(C(N)=S)ccn1 [ETHIONAMIDE]
Hepatotoxicity (choleostasis) ([1]; Liver): 6 | Hepatotoxicity (acute) ([2]; Liver): 5.4% | Hepatotoxicity (chronic liver disease) [3]: 0 | Hepatotoxicity (steatosis) [4]: 0 | Hepatotoxicity (malignant tumour) [6]: 0 | Hepatotoxicity (severe hepatitis) ([7]; Liver): 2 | Hepatotoxicity (mechanism) ([18]; Liver): Allergic | Hepatotoxicity (moderate) ([8]; Liver): 37% | Hepatotoxicity (association with vascular disease) [9]: 0 | Hepatotoxicity (time to onset) [10]: 1 month - 2 years | Hepatotoxicity (benign tumour) [11]: 0 | Hepatotoxicity (cirrhosis) [12]: 0 | Hepatotoxicity (successful reintroduction) [13]: yes | Hepatotoxicity (acute) [14]: 15 | Hepatotoxicity (moderate) [15]: 11 | Hepatotoxicity (cytolytic) ([16]; Liver): 7 | Hepatotoxicity (granulomatous hepatitis) ([17]; Liver): 0

Cc1oncc1C(=O)Nc1ccc(C(F)(F)F)cc1 [LEFLUNOMIDE]
Hepatotoxicity (choleostasis) [1]: 0 | Hepatotoxicity (acute) [2]: 10% | Hepatotoxicity (chronic liver disease) [3]: 0 | Hepatotoxicity (steatosis) [4]: 1 | Hepatotoxicity (malignant tumour) [6]: 0 | Hepatotoxicity (severe hepatitis) [7]: 3 | Hepatotoxicity (mechanism) [18]: Dose-dependant | Hepatotoxicity (moderate) [8]: 56.7% | Hepatotoxicity (association with vascular disease) [9]: 0 | Hepatotoxicity (time to onset) [10]: 4 weeks - 20 months | Hepatotoxicity (benign tumour) [11]: 0 | Hepatotoxicity (cirrhosis) [12]: 1 | Hepatotoxicity (successful reintroduction) [13]: yes | Hepatotoxicity (acute) [14]: 6 | Hepatotoxicity (moderate) [15]: 36 | Hepatotoxicity (cytolytic) [16]: 5 | Hepatotoxicity (granulomatous hepatitis) [17]: 0

CC(C)NNC(=O)COc1ccc(Cl)cc1 [IPROCLOZIDE]
Hepatotoxicity (choleostasis) [1]: 1 | Hepatotoxicity (acute) [2]: 0% | Hepatotoxicity (chronic liver disease) [3]: 0 | Hepatotoxicity (steatosis) [4]: 0 | Hepatotoxicity (malignant tumour) [6]: 0 | Hepatotoxicity (severe hepatitis) [7]: 2 | Hepatotoxicity (mechanism) [18]: Toxic Metabolite | Hepatotoxicity (moderate) [8]: 0% | Hepatotoxicity (association with vascular disease) [9]: 0 | Hepatotoxicity (time to onset) [10]: 1 week - 1 month | Hepatotoxicity (benign tumour) [11]: 0 | Hepatotoxicity (cirrhosis) [12]: 0 | Hepatotoxicity (successful reintroduction) [13]: yes | Hepatotoxicity (acute) [14]: 3 | Hepatotoxicity (moderate) [15]: 0 | Hepatotoxicity (cytolytic) [16]: 3 | Hepatotoxicity (granulomatous hepatitis) [17]: 0

Cc1cccc(Nc2ccccc2C(=O)O)c1C [MEFENAMIC ACID]
Hepatotoxicity (choleostasis) ([1]; Liver): 1 | Hepatotoxicity (acute) ([2]; Liver): 0% | Hepatotoxicity (chronic liver disease) [3]: 0 | Hepatotoxicity (steatosis) [4]: 0 | Hepatotoxicity (malignant tumour) [6]: 0 | Hepatotoxicity (severe hepatitis) ([7]; Liver): 1 | Hepatotoxicity (mechanism) ([18]; Liver): Allergic | Hepatotoxicity (moderate) ([8]; Liver): 0% | Hepatotoxicity (association with vascular disease) [9]: 0 | Hepatotoxicity (time to onset) [10]: 2 weeks | Hepatotoxicity (benign tumour) [11]: 0 | Hepatotoxicity (cirrhosis) [12]: 0 | Hepatotoxicity (successful reintroduction) [13]: yes | Hepatotoxicity (acute) [14]: 3 | Hepatotoxicity (moderate) [15]: 0 | Hepatotoxicity (cytolytic) ([16]; Liver): 2 | Hepatotoxicity (granulomatous hepatitis) ([17]; Liver): 0

CCOC(N)=O
Hepatotoxicity (choleostasis) [1]: 1 | Hepatotoxicity (acute) [2]: 0% | Hepatotoxicity (chronic liver disease) [3]: 0 | Hepatotoxicity (steatosis) [4]: 0 | Hepatotoxicity (malignant tumour) [6]: 0 | Hepatotoxicity (severe hepatitis) [7]: 4 | Hepatotoxicity (mechanism) [18]: Dose-dependant | Hepatotoxicity (moderate) [8]: 0% | Hepatotoxicity (association with vascular disease) [9]: 3 | Hepatotoxicity (time to onset) [10]: 1 year - 2 years | Hepatotoxicity (benign tumour) [11]: 0 | Hepatotoxicity (cirrhosis) [12]: 1 | Hepatotoxicity (successful reintroduction) [13]: yes | Hepatotoxicity (acute) [14]: 5 | Hepatotoxicity (moderate) [15]: 0 | Hepatotoxicity (cytolytic) [16]: 5 | Hepatotoxicity (granulomatous hepatitis) [17]: 0

CCCCCCCCNC(C)C(O)c1ccc(SC(C)C)cc1 (centres undefined) [SULOCTIDIL]
Hepatotoxicity (choleostasis) [1]: 3 | Hepatotoxicity (acute) [2]: 0.5% | Hepatotoxicity (chronic liver disease) [3]: 1 | Hepatotoxicity (steatosis) [4]: 1 | Hepatotoxicity (malignant tumour) [6]: 0 | Hepatotoxicity (severe hepatitis) [7]: 2 | Hepatotoxicity (mechanism) [18]: Allergic | Hepatotoxicity (moderate) [8]: 15% | Hepatotoxicity (association with vascular disease) [9]: 0 | Hepatotoxicity (time to onset) [10]: 1 week - 1 year | Hepatotoxicity (benign tumour) [11]: 0 | Hepatotoxicity (cirrhosis) [12]: 4 | Hepatotoxicity (successful reintroduction) [13]: yes | Hepatotoxicity (acute) [14]: 8 | Hepatotoxicity (moderate) [15]: 3 | Hepatotoxicity (cytolytic) [16]: 7 | Hepatotoxicity (granulomatous hepatitis) [17]: 0

CO[C@]12CC[C@@]3(C[C@@H]1[C@](C)(O)C(C)(C)C)[C@H]1Cc4ccc(O)c5c4[C@@]3(CCN1CC1CC1)[C@H]2O5 [BUPRENORPHINE]
Hepatotoxicity (choleostasis) [1]: 0 | Hepatotoxicity (acute) [2]: 0% | Hepatotoxicity (chronic liver disease) [3]: 0 | Hepatotoxicity (steatosis) [4]: 0 | Hepatotoxicity (malignant tumour) [6]: 0 | Hepatotoxicity (severe hepatitis) [7]: 2 | Hepatotoxicity (mechanism) [18]: Allergic, Overdose | Hepatotoxicity (moderate) [8]: 71% | Hepatotoxicity (association with vascular disease) [9]: 0 | Hepatotoxicity (time to onset) [10]: 2 days - 3 months | Hepatotoxicity (benign tumour) [11]: 0 | Hepatotoxicity (cirrhosis) [12]: 0 | Hepatotoxicity (successful reintroduction) [13]: yes | Hepatotoxicity (acute) [14]: 3 | Hepatotoxicity (moderate) [15]: 1 | Hepatotoxicity (cytolytic) [16]: 2 | Hepatotoxicity (granulomatous hepatitis) [17]: 0

Cn1c(=O)c2[nH]cnc2n(C)c1=O.O [THEOPHYLLINE]
Hepatotoxicity (choleostasis) [1]: 0 | Hepatotoxicity (acute) [2]: 0% | Hepatotoxicity (chronic liver disease) [3]: 0 | Hepatotoxicity (steatosis) [4]: 0 | Hepatotoxicity (malignant tumour) [6]: 0 | Hepatotoxicity (severe hepatitis) [7]: 0 | Hepatotoxicity (mechanism) [18]: Dose-dependant | Hepatotoxicity (moderate) [8]: 55.6% | Hepatotoxicity (association with vascular disease) [9]: 0 | Hepatotoxicity (time to onset) [10]: 4 days - 11 days | Hepatotoxicity (benign tumour) [11]: 0 | Hepatotoxicity (cirrhosis) [12]: 0 | Hepatotoxicity (successful reintroduction) [13]: yes | Hepatotoxicity (acute) [14]: 1 | Hepatotoxicity (moderate) [15]: 2 | Hepatotoxicity (cytolytic) [16]: 1 | Hepatotoxicity (granulomatous hepatitis) [17]: 0

NC(=O)NO [HYDROXYUREA]
Hepatotoxicity (choleostasis) [1]: 1 | Hepatotoxicity (acute) [2]: 0% | Hepatotoxicity (chronic liver disease) [3]: 0 | Hepatotoxicity (steatosis) [4]: 0 | Hepatotoxicity (malignant tumour) [6]: 0 | Hepatotoxicity (severe hepatitis) [7]: 1 | Hepatotoxicity (mechanism) [18]: Allergic | Hepatotoxicity (moderate) [8]: 12.5% | Hepatotoxicity (association with vascular disease) [9]: 0 | Hepatotoxicity (time to onset) [10]: 1 day - 3 months | Hepatotoxicity (benign tumour) [11]: 0 | Hepatotoxicity (cirrhosis) [12]: 0 | Hepatotoxicity (successful reintroduction) [13]: yes | Hepatotoxicity (acute) [14]: 4 | Hepatotoxicity (moderate) [15]: 5 | Hepatotoxicity (cytolytic) [16]: 3 | Hepatotoxicity (granulomatous hepatitis) [17]: 2
